Results reported in patent EP1458697B1, “BIPHENYLMETHYL-THIAZOLIDINEDIONES AND ANALOGUES AND THEIR USE AS PPAR-GAMMA ACTIVATORS” (Galderma Research & Development, S.N.C., priority 2001, dated 2003).

Assays:
[1] = target: T1, récepteur chimère Gal-PPARα (Homo sapiens, UniProt Q07869); assay: Transactivation test, same protocol with chimeric receptor Gal-PPARα; format: cell-based; conditions: Hela cells; for activation at 1 µM: 24 h, compound at 1 microM, percent of activation relative to reference agonist (Wy 14643 = 100%), read-out: % d'activation (à 1 microM) PPARα; for AC50: concentration giving 50% activation relative to reference agonist, read-out: AC50 (en nM) PPARα
T1 sequence (Q07869 167-468): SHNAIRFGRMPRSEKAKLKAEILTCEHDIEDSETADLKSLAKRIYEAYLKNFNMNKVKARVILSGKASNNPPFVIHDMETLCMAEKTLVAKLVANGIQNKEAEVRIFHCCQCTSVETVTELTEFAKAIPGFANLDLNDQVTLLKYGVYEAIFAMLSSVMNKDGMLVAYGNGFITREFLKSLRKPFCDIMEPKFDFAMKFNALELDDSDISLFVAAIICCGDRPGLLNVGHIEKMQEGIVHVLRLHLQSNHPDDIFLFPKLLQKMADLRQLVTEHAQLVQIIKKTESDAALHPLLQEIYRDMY
Text: De préférence, l'activateur des récepteurs de type PPARγ est spécifique, c'est à dire qu'il présente un rapport du pourcentage d'activation des récepteurs PPARγ, au pourcentage d'activation des récepteurs PPARα (calculé par rapport à un composé de référence, le Wy 14643, activant les PPARα de 100%) supérieur ou égal à 3. De préférence, ce rapport est supérieur ou égal à 5 et plus avantageusement supérieur ou égal à 10.
(§1) La capacité des molécules à activer et/ou inhiber les récepteurs PPARγ est évaluée à partir de cellules Hela transfectées de manière stable avec le récepteur chimère Gal-PPARγ (LBD).
(§2) Des plaques 96 puits sont ensemencées à raison de 10 000 cellules /100 µl / puit dans du milieu DMEM 10% SDL puis placées 24 heures à 37°C, 7% CO2.
(§3) Pour déterminer l'activité agoniste PPARγ, les cellules sont ensuite traitées par ajout de 5 µl puit des molécules à tester à la concentration finale de 1 µM. Des cellules sont également traitées en parallèle avec un agoniste de référence, l'acide (-)-3-{4-[2-(Benzooxazol-2-yl-methyl-amino)-ethoxy]-phenyl}-2-ethoxy-propionique, 1 µM.
(§4) Après une nouvelle incubation de 24 heures à 37°C, 7% CO2, un dosage de la luciférase est effectué à l'aide du kit « Steady-Glo Luciferase Assay System » de Promega. Le comptage de la luminescence se fait sur un lecteur de microplaque Microbéta Trilux (Wallac).
(§5) L'activité agoniste du produit testé sera exprimée en pourcentage d'activation par rapport au témoin agoniste l'agoniste de référence à 1 µM.
En appliquant ce même protocole avec le récepteur chimère Gal-PPARα, on peut mesurer l'activité agoniste des composés vis à vis des récepteurs PPAR alpha et ainsi la comparer avec celui du récepteur PPARγ.
(§6) L'AC50, exprimée en nM, est déterminée comme la concentration permettant d'obtenir 50% d'activation du signal basal par rapport à l'agoniste de référence.

[2] = target: T2, récepteur chimère Gal-PPARγ (LBD) (Homo sapiens, UniProt P37231); assay: Transactivation test, Hela cells stably transfected with chimeric receptor Gal-PPARγ (LBD), luciferase readout; format: cell-based; conditions: M-HeLa, 24 h, compound at 1 microM, percent of activation relative to reference agonist at 1 µM, read-out: % d'activation (à 1 microM) PPARγ
T2 construct: le récepteur chimère Gal-PPARγ (LBD); Gal (fusion partner); expressed in transfected cells; host or cells: HeLa cells, stably transfected
T2 sequence (P37231 238-503 limits assumed): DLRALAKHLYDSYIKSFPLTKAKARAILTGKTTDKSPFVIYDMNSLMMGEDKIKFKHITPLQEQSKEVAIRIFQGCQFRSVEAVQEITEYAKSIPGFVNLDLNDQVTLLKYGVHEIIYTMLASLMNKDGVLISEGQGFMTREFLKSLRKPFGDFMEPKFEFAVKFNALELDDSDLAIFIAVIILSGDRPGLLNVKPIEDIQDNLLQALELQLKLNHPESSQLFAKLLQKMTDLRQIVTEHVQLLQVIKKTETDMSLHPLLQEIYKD
Description: L'activité agoniste vis à vis des récepteurs PPARγ des composés selon l'invention peut être évaluée par des tests de transactivation.
as §1, §2, §3, §4, §5, §6

activation at 1 µM [1] [%]	AC50 [1] [nM]	activation at 1 µM [2] [%]	Compound
37.3	> 50000	90.7	CSc1ccc(C(=O)N(C)Cc2cccc(-c3ccc(CC4SC(=O)NC4=O)cc3)c2)cc1 (stereo not drawn) [Composé de l'exemple 18, N-[4'-(2,4-Dioxo-thiazolidin-5-ylmethyl)-biphenyl-3-ylmethyl]-N-methyl-4-methylsulfanyl-benzamide]
13.8	> 50000	183	CN(Cc1cccc(-c2ccc(CC3SC(=O)NC3=O)cc2)c1)C(=O)c1ccc(-c2ccccc2)cc1 (stereo not drawn) [Composé de l'exemple 10, N-[4'-(2,4-dioxo-thiazolidin-5-ylmethyl)-biphenyl-3-ylmethyl]-N-methyl-biphenyl-4-carboxamide]
